Measurements published in US6599930B2, “Coniosetin and derivatives thereof, process for the preparation and the use thereof” (Aventis Pharma Deutschland GmbH, priority 2000, dated 2003).
Converted amounts (≈) assume the structure as drawn. Like-named read-outs stand apart in the source and are kept apart here.

Columns and labels:
bacteria [1] = details: as described in the cited literature; cited from earlier work
Aspergillus niger = test: Agar diffusion test; format: cell-based; details: for zone of inhibition at 10000 µM: 40 h, A. niger, 28° C., 40 hours, read-out: Zone of inhibition, diameter
Protocol: (§1) Agar plates were prepared with a 2 ml inoculum of Staphylococcus aureus in 200 ml of agar solution, a 2 ml inoculum of Escherichia coli in 200 ml of agar; a 2 ml inoculum of Candida albicans in 200 ml of agar solution; a 1 ml inoculum of Aspergillus niger in 200 ml of agar solution and a 3 ml inoculum of Streptomyces murinus in 200 ml of agar solution. The coniosetin was applied in a 10 mM solution to disks with a diameter of 6 mm and placed on the agar plate. The inoculated Staphylococcus, E. coli and Candida plates were incubated at 37° C. for 16 hours, the A. niger plate was incubated at 28° C. for 40 hours, and the Streptomyces plate was incubated at 28° C. for 16 hours. Zones of inhibition with the following diameters (mm) were then observed.

Candida albicans = test: Agar diffusion test; format: cell-based; details: for zone of inhibition at 10000 µM: 16 h, C. albicans, 37° C., 16 hours, read-out: Zone of inhibition, diameter
Protocol: as §1

Streptomyces murinus = test: Agar diffusion test; format: cell-based; details: 16 h, S. murinus, 28° C., read-out: Zone of inhibition, diameter
Protocol: as §1

Escherichia coli [2] = test: Agar diffusion test; format: cell-based; details: E. coli, 37° C., 16 hours
Protocol: as §1

Staphylococcus aureus [3] = test: Agar diffusion test; format: cell-based; details: 16 h, S. aureus, 37° C., read-out: Zone of inhibition, diameter
Protocol: as §1

Solubility = format: physicochemical
Tolerability = details: at the effective concentration and at higher concentrations
bacteria [4] = test: Antibacterial effect, general statements; format: cell-based; details: general statement
S. agalactiae = test: MIC, serial dilution test; format: cell-based; details: Streptococcus agalactiae, ery R
From the text: (§2) Table 1 summarizes the minimum inhibitory concentrations (MIC) of coniosetin by way of example.

S. pyogenes = test: MIC, serial dilution test; format: cell-based; details: Streptococcus pyogenes
From the text: as §2

Enterococcus faecium = test: MIC, serial dilution test; format: cell-based; details: teiR vanR eryR tetR
From the text: as §2

Enterococcus faecalis = test: MIC, serial dilution test; format: cell-based
From the text: as §2

Streptococcus gr. G = test: MIC, serial dilution test; format: cell-based
From the text: as §2

S. epidermidis = test: MIC, serial dilution test; format: cell-based; details: Staphylococcus epidermidis
From the text: as §2

S. pneumoniae = test: MIC, serial dilution test; format: cell-based; details: Streptococcus pneumoniae
From the text: as §2

Escherichia coli [5] = test: MIC, serial dilution test; format: cell-based; details: 18 h
From the text: as §2

S. sanguis = test: MIC, serial dilution test; format: cell-based; details: ery R
From the text: as §2

S. mitis = test: MIC, serial dilution test; format: cell-based; details: Streptococcus mitis
From the text: as §2

Staphylococcus aureus [6] = test: MIC, serial dilution test; format: cell-based
From the text: as §2

Stability in solution = format: physicochemical
[7] = 10 μl of 10 mM solution on 6 mm disk
[8] = 20 μl of 10 mM solution on 6 mm disk
[9] = 40 μl of 10 mM solution on 6 mm disk
[10] = compared with the antibacterial effect (Example 8)

CCCCCCC/C=C/C(=O)N1C(O)=C(C(C)=O)C(=O)[C@H]1CC(C)C [reutericyclin]
Antibacterial activity (bacteria [1]): weak antibacterial activity

C/C=C/C=C/C1C(C)=CC2CC(C)CCC2C1(C)/C(O)=C1\C(=O)NC(C(C)O)C1=O (centres unmarked) [coniosetin]
zone of inhibition at 10000 µM (Aspergillus niger; [7]): 0 mm | zone of inhibition at 10000 µM (Aspergillus niger; [8]): 0 mm | zone of inhibition at 10000 µM (Aspergillus niger; [9]): 8 mm | Inhibitory effect on fungi (Aspergillus niger; [10]): inhibitory effect—although weaker | zone of inhibition at 10000 µM (Candida albicans; [7]): 9 mm | zone of inhibition at 10000 µM (Candida albicans; [8]): 10 mm | zone of inhibition at 10000 µM (Candida albicans; [9]): 10.5 mm | Inhibitory effect on yeasts (Candida albicans; [10]): inhibitory effect—although weaker | zone of inhibition at 10000 µM (Streptomyces murinus; [7]): 0 mm | zone of inhibition at 10000 µM (Streptomyces murinus; [8]): 9 mm | zone of inhibition at 10000 µM (Streptomyces murinus; [9]): 10 mm | Zone of inhibition, diameter (Escherichia coli [2]; [8]): 0 mm | Zone of inhibition, diameter (Escherichia coli [2]; [9]): 0 mm | zone of inhibition at 10000 µM (Escherichia coli [2]; Escherichia coli, 10 μl of 10 mM solution on 6 mm disk, read-out: Zone of inhibition, diameter): 0 mm | zone of inhibition at 10000 µM (Staphylococcus aureus [3]; [7]): 13 mm | zone of inhibition at 10000 µM (Staphylococcus aureus [3]; [8]): 14.5 mm | zone of inhibition at 10000 µM (Staphylococcus aureus [3]; [9]): 15.5 mm | Solubility in organic solvents (Solubility; organic solvents of medium polarity and above): soluble | Solubility in water (Solubility; water): low solubility | Tolerability (Tolerability): well-tolerated | Antibacterial effect (bacteria [4]): very good antibacterial activity | MIC (S. agalactiae; 24 h): 2.5 µg/mL (≈ 6.05 µM) | MIC (S. agalactiae; 48 h): 2.5 µg/mL (≈ 6.05 µM) | MIC (S. agalactiae; after 18 h): 2.5 µg/mL (≈ 6.05 µM) | MIC (S. pyogenes; 18 h, ery R, after 18 h): 1.2 µg/mL (≈ 2.9 µM) | MIC (S. pyogenes; 18 h, ery S, after 18 h): 0.6 µg/mL (≈ 1.45 µM) | MIC (S. pyogenes; 24 h, ery R): 1.2 µg/mL (≈ 2.9 µM) | MIC (S. pyogenes; 24 h, ery S): 1.2 µg/mL (≈ 2.9 µM) | MIC (S. pyogenes; 48 h, ery R): 1.2 µg/mL (≈ 2.9 µM) | MIC (S. pyogenes; 48 h, ery S): 1.2 µg/mL (≈ 2.9 µM) | MIC (Enterococcus faecium; 24 h): 1.2 µg/mL (≈ 2.9 µM) | MIC (Enterococcus faecium; 48 h): 2.5 µg/mL (≈ 6.05 µM) | MIC (Enterococcus faecium; after 18 h): 1.2 µg/mL (≈ 2.9 µM) | MIC (Enterococcus faecalis; ery R, 24 h): 2.5 µg/mL (≈ 6.05 µM) | MIC (Enterococcus faecalis; ery R, 48 h): 2.5 µg/mL (≈ 6.05 µM) | MIC (Enterococcus faecalis; ery R, after 18 h): 2.5 µg/mL (≈ 6.05 µM) | MIC (Enterococcus faecalis; ery S, 24 h, read-out: MIC): 2.5 µg/mL (≈ 6.05 µM) | MIC (Enterococcus faecalis; ery S, 48 h, read-out: MIC): 2.5 µg/mL (≈ 6.05 µM) | MIC (Enterococcus faecalis; ery S, after 18 h, read-out: MIC): 2.5 µg/mL (≈ 6.05 µM) | MIC (Streptococcus gr. G; 18 h, ery R, after 18 h): 0.6 µg/mL (≈ 1.45 µM) | MIC (Streptococcus gr. G; 18 h, ery S, after 18 h): 1.2 µg/mL (≈ 2.9 µM) | MIC (Streptococcus gr. G; 24 h, ery R): 0.6 µg/mL (≈ 1.45 µM) | MIC (Streptococcus gr. G; 24 h, ery S): 1.2 µg/mL (≈ 2.9 µM) | MIC (Streptococcus gr. G; 48 h, ery R): 0.6 µg/mL (≈ 1.45 µM) | MIC (Streptococcus gr. G; 48 h, ery S): 1.2 µg/mL (≈ 2.9 µM) | MIC (S. epidermidis; 18 h, oxa R ery R, after 18 h): 0.6 µg/mL (≈ 1.45 µM) | MIC (S. epidermidis; 18 h, oxa S ery R, after 18 h): 0.3 µg/mL (≈ 0.725 µM) | MIC (S. epidermidis; 24 h, oxa R ery R): 1.2 µg/mL (≈ 2.9 µM) | MIC (S. epidermidis; 24 h, oxa S ery R): 0.3 µg/mL (≈ 0.725 µM) | MIC (S. epidermidis; 48 h, oxa R ery R): 1.2 µg/mL (≈ 2.9 µM) | MIC (S. epidermidis; 48 h, oxa S ery R): 0.3 µg/mL (≈ 0.725 µM) | MIC (S. pneumoniae; 18 h, ery R (first listed strain), after 18 h): 0.6 µg/mL (≈ 1.45 µM) | MIC (S. pneumoniae; 18 h, ery R (second listed strain), after 18 h): 0.6 µg/mL (≈ 1.45 µM) | MIC (S. pneumoniae; 18 h, ery R (third listed strain), after 18 h): 0.6 µg/mL (≈ 1.45 µM) | MIC (S. pneumoniae; 18 h, ery R pen R (first listed strain), after 18 h): 0.6 µg/mL (≈ 1.45 µM) | MIC (S. pneumoniae; 18 h, ery R pen R (second listed strain), after 18 h): 0.6 µg/mL (≈ 1.45 µM) | MIC (S. pneumoniae; 18 h, ery S pen R, after 18 h): 0.6 µg/mL (≈ 1.45 µM) | MIC (S. pneumoniae; 18 h, ery S, after 18 h): 0.6 µg/mL (≈ 1.45 µM) | MIC (S. pneumoniae; 24 h, ery R (first listed strain)): 0.6 µg/mL (≈ 1.45 µM) | MIC (S. pneumoniae; 24 h, ery R (second listed strain)): 0.6 µg/mL (≈ 1.45 µM) | MIC (S. pneumoniae; 24 h, ery R (third listed strain)): 0.6 µg/mL (≈ 1.45 µM) | MIC (S. pneumoniae; 24 h, ery R pen R (first listed strain)): 0.6 µg/mL (≈ 1.45 µM) | MIC (S. pneumoniae; 24 h, ery R pen R (second listed strain)): 0.6 µg/mL (≈ 1.45 µM) | MIC (S. pneumoniae; 24 h, ery S): 0.6 µg/mL (≈ 1.45 µM) | MIC (S. pneumoniae; 24 h, ery S pen R): 1.2 µg/mL (≈ 2.9 µM) | MIC (S. pneumoniae; 48 h, ery R (first listed strain)): 0.6 µg/mL (≈ 1.45 µM) | MIC (S. pneumoniae; 48 h, ery R (second listed strain)): 0.6 µg/mL (≈ 1.45 µM) | MIC (S. pneumoniae; 48 h, ery R (third listed strain)): 1.2 µg/mL (≈ 2.9 µM) | MIC (S. pneumoniae; 48 h, ery R pen R (first listed strain)): 0.6 µg/mL (≈ 1.45 µM) | MIC (S. pneumoniae; 48 h, ery R pen R (second listed strain)): 0.6 µg/mL (≈ 1.45 µM) | MIC (S. pneumoniae; 48 h, ery S): 0.6 µg/mL (≈ 1.45 µM) | MIC (S. pneumoniae; 48 h, ery S pen R): 1.2 µg/mL (≈ 2.9 µM) | MIC (Escherichia coli [5]): > 40 µg/mL | MIC (S. sanguis; 24 h): 1.2 µg/mL (≈ 2.9 µM) | MIC (S. sanguis; 48 h): 2.5 µg/mL (≈ 6.05 µM) | MIC (S. sanguis; after 18 h): 1.2 µg/mL (≈ 2.9 µM) | MIC (S. mitis; 18 h, ery R, after 18 h): 2.5 µg/mL (≈ 6.05 µM) | MIC (S. mitis; 18 h, ery S, after 18 h): 1.2 µg/mL (≈ 2.9 µM) | MIC (S. mitis; 24 h, ery R): 2.5 µg/mL (≈ 6.05 µM) | MIC (S. mitis; 24 h, ery S): 2.5 µg/mL (≈ 6.05 µM) | MIC (S. mitis; 48 h, ery R): 2.5 µg/mL (≈ 6.05 µM) | MIC (S. mitis; 48 h, ery S): 2.5 µg/mL (≈ 6.05 µM) | MIC (Staphylococcus aureus [6]; 18 h, S. aureus, oflR oxaR eryR tetR, after 18 h): 0.6 µg/mL (≈ 1.45 µM) | MIC (Staphylococcus aureus [6]; 18 h, S. aureus, oxa R ery R, after 18 h): 0.3 µg/mL (≈ 0.725 µM) | MIC (Staphylococcus aureus [6]; 18 h, S. aureus, oxa S ery R (first listed strain), after 18 h): 0.3 µg/mL (≈ 0.725 µM) | MIC (Staphylococcus aureus [6]; 18 h, S. aureus, oxa S ery R (second listed strain), after 18 h): 0.6 µg/mL (≈ 1.45 µM) | MIC (Staphylococcus aureus [6]; 18 h, S. aureus, oxaR eryR tetR, after 18 h): 0.3 µg/mL (≈ 0.725 µM) | MIC (Staphylococcus aureus [6]; 18 h, ery S, after 18 h): 0.3 µg/mL (≈ 0.725 µM) | MIC (Staphylococcus aureus [6]; 24 h, S. aureus, oflR oxaR eryR tetR): 0.6 µg/mL (≈ 1.45 µM) | MIC (Staphylococcus aureus [6]; 24 h, S. aureus, oxa R ery R): 0.3 µg/mL (≈ 0.725 µM) | MIC (Staphylococcus aureus [6]; 24 h, S. aureus, oxa S ery R (first listed strain)): 0.3 µg/mL (≈ 0.725 µM) | MIC (Staphylococcus aureus [6]; 24 h, S. aureus, oxa S ery R (second listed strain)): 0.6 µg/mL (≈ 1.45 µM) | MIC (Staphylococcus aureus [6]; 24 h, S. aureus, oxaR eryR tetR): 0.3 µg/mL (≈ 0.725 µM) | MIC (Staphylococcus aureus [6]; 24 h, ery S): 0.3 µg/mL (≈ 0.725 µM) | MIC (Staphylococcus aureus [6]; 48 h, S. aureus, oflR oxaR eryR tetR): 0.6 µg/mL (≈ 1.45 µM) | MIC (Staphylococcus aureus [6]; 48 h, S. aureus, oxa R ery R): 0.3 µg/mL (≈ 0.725 µM) | MIC (Staphylococcus aureus [6]; 48 h, S. aureus, oxa S ery R (first listed strain)): 0.3 µg/mL (≈ 0.725 µM) | MIC (Staphylococcus aureus [6]; 48 h, S. aureus, oxa S ery R (second listed strain)): 0.6 µg/mL (≈ 1.45 µM) | MIC (Staphylococcus aureus [6]; 48 h, S. aureus, oxaR eryR tetR): 0.3 µg/mL (≈ 0.725 µM) | MIC (Staphylococcus aureus [6]; 48 h, ery S): 0.6 µg/mL (≈ 1.45 µM) | Stability (Stability in solution; neutral and weakly acidic media): Stable | Stability (Stability in solution; strongly acidic and strongly alkaline solution): unstable

harzianic acid
Antibacterial activity (bacteria [1]): very low activity
